Source: patent publication US20230144619A1, “SALT OF ARYLAMINOPURINE DERIVATIVE, PREPARATION METHOD THEREFOR AND USE THEREOF” (CSPC Zhongqi Pharmaceutical Technology (Shijiazhuang) Co., …, priority 2020, published 2023)
In brackets after ≈: the same amount, converted by molar mass.

Assays:
Hygroscopicity test = assay type: physicochemical; conditions: 25±1° C., relative humidity 80%±2% (DVS, 80% RH)
Method: Detection instrument: XPE105DR
(1) A dry stoppered glass weighing bottle was taken, placed in a suitable constant-temperature desiccator at 25° C. 1° C. (with a saturated solution of ammonium chloride or ammonium sulfate in the lower part) or an artificial climate box (with the set temperature of 25° C.±1° C. and the relative humidity of 80%±2%) on the day before the test, and precisely weighed and recorded as the weight (m1).
(2) An appropriate amount of the test sample was taken and spread in the above-mentioned weighing bottle. The thickness of the test sample was generally about 1 mm, and the bottle was precisely weighed and recorded as the weight (m2).
(3) The stopper was removed to open the weighing bottle, and the opened weighing bottle and the stopper were placed under the above-mentioned constant temperature and humidity conditions for 24 hours.
(4) The opened weighing bottle was stoppered, precisely weighed, and recorded as the weight (m3).
Percentage increase in mass=(m3−m2)/(m2−m1)×100%
(5) The description of hygroscopicity characteristics and the definition for the weight gain due to hygroscopicity:
Deliquescence: Sufficient water was absorbed to form a liquid.
Very hygroscopic: the weight gain due to hygroscopicity was not less than 15%.
Hygroscopic: the weight gain due to hygroscopicity was less than 15% but not less than 2%.
Slightly hygroscopic: the weight gain due to hygroscopicity was less than 2% but not less than 0.2%.
Not or nearly not hygroscopic: the weight gain due to hygroscopicity was less than 0.2%.
Appropriate amounts of the salt samples obtained from Examples 1 and 3-17 were subjected to the hygroscopicity test at a temperature of 25±1° C. under a relative humidity of 80%±2%, and the results were as follows: […]

DSC and TGA tests = assay type: physicochemical; conditions: onset temperature
Method: 6. Differential Scanning Calorimetry-Thermogravimetric Analysis (DSC-TGA)
Detection instrument: NETZSCH STA 449F3
Temperature range: 20° C.-350° C.;
Heating rate: 10.0 (K/min);
7. Differential Scanning Calorimetry (DSC)
Detection instrument: NETZSCH DSC 214 Polyma
Temperature range: 20° C.-250° C.;
Heating rate: 5.0 (K/min);
8. Thermogravimetric Analysis (TGA)
Detection instrument: METTLER and SDT Q600
The salts obtained in Examples 1 and 3-17 and the compound represented by Formula 1 were subjected to the DSC and TGA tests in media, and the test results were shown in the following table: […]

[1] = Solubility test (UV spectrophotometer, saturated solutions shaken 24 hours); assay type: physicochemical; conditions: for Solubility, Water medium pH = 1.2 / Solubility, Water medium pH = 4.5 / Solubility, Water medium pH = 6.8 / Solubility, Water medium: 25° C.; for Solubility, Water medium pH = 1.2: pH=1.2 hydrochloric acid solution; for Solubility, Water medium pH = 4.5: pH=4.5 phosphate buffer solution; for Solubility, Water medium pH = 6.8: pH=6.8 phosphate buffer solution; for Solubility, Water medium: water (purified water)
Method: Detection instrument: Ultraviolet spectrophotometer/Evolution 300
The following solutions with pH=1.2, pH=4.5, and pH=6.8 and water were used as the solvent, and the solvent preparation process was as follows:
(1) pH=1.2 hydrochloric acid solution: To 7.65 mL of hydrochloric acid was added 1000 mL of water, and the mixture was shaken uniformly to obtain the target solution.
(2) pH=4.5 phosphate buffer solution: 6.8 g of potassium dihydrogen phosphate was taken and diluted with water to 1000 mL, and the mixture was shaken uniformly to obtain the target solution.
(2) pH=6.8 phosphate buffer solution: 6.8 g of potassium dihydrogen phosphate and 0.896 g of sodium hydroxide were taken and diluted with water to 1000 mL, and the mixture was shaken uniformly to obtain the target solution.
(4) Water: purified water
Test tubes with stopper were taken, and 10 mL of dissolution media at various pH values were precisely added to the test tubes respectively, and excessive stock drugs were added until supersaturated solutions were formed. The adding amounts were recorded. The solutions were shaken uniformly, sealed with stoppers, and shaken for 24 hours in a shaker. 2 mL of solutions were taken out at different time points respectively, and centrifuged. The resulting supernatants were taken, filtered, and the subsequent filtrates were taken for later use.
The above-mentioned saturated solutions in different solvents were taken, and solvents were added to dilute the solutions to certain volumes. The absorbances were measured at a wavelength of 287 nm.
Preparation of a solution of the reference substance: an appropriate amount of the compound represented by Formula 1 was taken as the reference substance, and precisely weighed. A solvent was added to dissolve and dilute the reference compound to produce a solution containing about 10 μg of the compound represented by Formula 1 per 1 mL. The absorbance was measured at a wavelength of 287 nm to calculate the solubility.
The salts obtained in Examples 1 and 3-17 and the compound represented by Formula 1 were subjected to the solubility test in media and the test results were shown in the following table: […]

[2] = Accelerated stability test; assay type: physicochemical
Method: Appropriate amounts of the salt samples obtained from Examples 1 and 3-17 were placed at a temperature of 25±2° C. under 0%±5% RH in an open environment for 10 days and at a temperature of 40±2° C. under 75%±5% RH in an open environment for 10 days respectively to perform the accelerated tests, and the results were as follows: […]

[3] = tested on: human non-small cell lung cancer HCC827; conditions: lung cancer HCC827 transplantation tumors in nude mice, background statement; cited from earlier work
[4] = tested on: MV4-11 (FLT3-ITD mutation) subcutaneous tumor model; conditions: human leukemia MV4-11 transplantation tumors in nude mice, background statement; cited from earlier work
[5] = tested on: K562 (BCR-Abl gene rearrangement) subcutaneous tumor model; conditions: human leukemia K562 transplantation tumors in nude mice, background statement; cited from earlier work
leukemia = conditions: background statement; cited from earlier work
[6] = tested on: lung cancer (PC-9) transplantation tumors; conditions: lung cancer PC-9 transplantation tumors in nude mice, background statement; cited from earlier work
lung cancer = conditions: background statement; cited from earlier work
[7] = Placed at 25 ± 2° C. under 0% ± 5% RH in an open environment for 10 days
[8] = Placed at 40 ± 2° C. under 75% ± 5% RH in an open environment for 10 days

Row | Weight gain due to hygroscopicity (Hygroscopicity test) | TGA: starting to lose the acid (DSC and TGA tests) | TGA: starting to lose the water of crystallization (DSC and TGA tests) | Solubility, Water medium pH = 1.2 [1] | Solubility, Water medium pH = 4.5 [1] | Solubility, Water medium pH = 6.8 [1] | Solubility, Water medium [1] | Appearance [2, 7] | Appearance [2, 8] | TGA: starting to decompose (DSC and TGA tests) | solubility in water (in words) ([1]; water) | SMILES | Hygroscopicity (Hygroscopicity test) | efficacy on transplantation tumors [3] | efficacy on transplantation tumors [4] | efficacy on transplantation tumors [5] | anti-leukemia activity compared with Sunitinib (leukemia) | efficacy on transplantation tumors [6] | anti-lung cancer activity compared with Gefitinib (lung cancer)
1 | 0.68% | ~220 °C (see FIG. 31) | crystallization at about 40° C.; | 87.38 mg/mL | 16.13 mg/mL | 8.61 mg/mL | 27.78 mg/mL (≈ 62.6 mM) | Yellow solid | Yellow solid |  |  | CC(C)n1c(Nc2cccnc2)nc2cnc(Nc3ccc(N4CCN(C)CC4)cc3)nc21 [Example 11] | Slightly hygroscopic (the weight gain due to hygroscopicity was less than 2% but not less than 0.2%.) |  |  |  |  |  | 
2 | 1.59% | ~80 °C (see FIG. 37) | crystallization at about 40° C.; | 41.47 mg/mL | 0.72 mg/mL | 0.03 mg/mL | 0.04 mg/mL (≈ 0.0902 mM) | Off-white solid | Off-white solid |  |  | CC(C)n1c(Nc2cccnc2)nc2cnc(Nc3ccc(N4CCN(C)CC4)cc3)nc21 [Example 14] | Slightly hygroscopic (the weight gain due to hygroscopicity was less than 2% but not less than 0.2%.) |  |  |  |  |  | 
3 | 2.59% | ~80 °C (see FIG. 39) | crystallization at about 40° C.; | 96.58 mg/mL | 45.67 mg/mL | 27.84 mg/mL | 63.57 mg/mL (≈ 143 mM) | Off-white solid | Off-white solid |  |  | CC(C)n1c(Nc2cccnc2)nc2cnc(Nc3ccc(N4CCN(C)CC4)cc3)nc21 [Example 15] | Hygroscopic (the weight gain due to hygroscopicity was less than 15% but not less than 2%.) |  |  |  |  |  | 
4 | 0.45% |  |  | 12.60 mg/mL | 0.57 mg/mL | 0.04 mg/mL | 0.05 mg/mL |  |  | ~155 °C (see FIG. 42) | insoluble in water | CC(C)n1c(Nc2cccnc2)nc2cnc(Nc3ccc(N4CCN(C)CC4)cc3)nc21 [The compound represented by Formula 1, 9-isopropyl-2-(4-(4-methylpiperazin-1-yl)anilino)-8-(pyridine-3-amino)-9H-purine] | Slightly hygroscopic (the weight gain due to hygroscopicity was less than 2% but not less than 0.2%.) | remarkable efficacy | remarkable efficacy | remarkable efficacy | better than that of Sunitinib | remarkable efficacy | comparable to that of Gefitinib
